Data as given in US20250302974A1, “LECTIN-DRUG CONJUGATES” (UNICHEM LABORATORIES LIMITED, priority 2021, published 2025).
Numbered stars: 1 amine (or outer) side, 2 acyl side, 3 side chain; on linkers, the order of the positions; unused ones are H or OH. Square brackets hold non-standard residues; d marks the D form. Peptide text beside a SMILES is read from it. * marks the point of attachment. Dolaproine = CO[C@@H]([C@@H]1CCCN1)[C@@H](C)C(=O)O; Hexanoyl(6-maleimido) = O=C1C=CC(=O)N1CCCCCC(=O)*; Dil = CC[C@H](C)[C@H](NC)[C@@H](CC(=O)O)OC; PABC = O=C(OCc1ccc(N[*:1])cc1)[*:2]; X1 = C[C@@H](N*)[C@@H](O)c1ccccc1; Cit = NC(=O)NCCC[C@H](N)C(=O)O; NMeV = CN[C@H](C(=O)O)C(C)C

Legend:
[1] = tested on: human urinary bladder cancer cell line (T-24); assay: Cytotoxicity assay, cell titer glow luminescence, 72 h; assay type: cell-based; details: 72 h
Procedure: (§1) T-24 Cell line were cultured in McCoy's 5a Medium Modified supplemented with 10% FBS and the PA-1 Cell line was cultured in EMEM Media supplemented with 10% FBS. The assay was performed by plating 5,000 cells/well and incubated at 37° C. overnight. […] Each concentration was added in triplicate and media-only wells used as a control. After incubation for 72 h cell titer glow (Promega) reagent (50 μL) was added to each well and the plates shaken for 5 mins and the luminescence was recorded. Percent viability was determined by dividing luminescence of the treated well by the non-treated well and multiplying by 100. Data was analysed using non-linear regression with a logarithmic scale.
(§2) 5,000 cells/well were plated and incubated at 37° C. overnight. Conjugates/vehicle control dilutions were made in respective media and added to cells. Volume added: 50 uL to each well. Starting treatment concentration was 1 uM for Conjugate of formula 16 and 18, and control SEQ ID NO: 5 alone and 10% for vehicle control (1×PBS with 20% DMA) and then diluted 10-fold down for a total of 11 treatment dilutions. Each concentration was analysed in triplicates. Media-only wells was used as a control to calculate percent viability. Cell titer glow reagent (volume: 50 uL) was added to each well, the plate was shaken for 5 mins and the luminescence was recorded. Drug Treatment Time: 72 hours. Percent viability was calculated by dividing the luminescence signal obtained for each treated well by the untreated well (media-only control) and multiplying by 100.

[2] = tested on: ovarian cancer cell line (PA-1); assay: as above; assay type: cell-based; details: 72 h
Procedure: as §1, §2

[3] = tested on: AGS Stomach; assay: Cytotoxic effect by MTT assay, 48 h; details: AGS, 48 h
Procedure: (§3) Cells were treated with Test Items at various concentrations (0.0001 μM-10 μM) for 48 h. The cells corresponding to Positive Control group were treated with Doxorubicin at a concentration ranging from 0.1 μM-100 μM. The Untreated cells were used as Control. After 48 h of incubation, the effect of Test Items on cytotoxicity of cells was determined by MTT assay, the plates were taken out and 20 μl of 5 mg/m1 of MTT 3-(4,5-dimethythiazol-2-yl)-2,5-diphenyl tetrazolium bromide solution was added to all the wells. Cells were incubated for 3 h at 37° C. The supernatant was aspirated. 150 μl of DMSO was added to each well to dissolve formazan crystals. The absorbance of each well was then read at 540 nm using Synergy HT micro plate reader.
(§4) The % Cytotoxicity was calculated using the formula:
(§5) Where, X=Absorbance of cells treated with Test Item; R=Absorbance of Control cells (Untreated cells maintained in growth medium only).
(§6) Selectivity Index was calculated using the formula:
(§7) SI=IC50 in Normal cell/IC50 in cancer cell.
(§8) Activity scores of the Selective Index values were categorized as: • Not selective (SI value ≤1) • Moderately selective (1<SI value <5) • Selective (SI value ≥5)

[4] = tested on: HT29 Colon; assay: Cytotoxic effect by MTT assay, 48 h; details: for Percent cytotoxicity wrt control: 48 h
Procedure: as §3, §4, §5, §6, §7, §8

[5] = tested on: KB Cervix; assay: Cytotoxic effect by MTT assay, 48 h; details: for Percent cytotoxicity wrt control: KB, 48 h
Procedure: as §3, §4, §5, §6, §7, §8

[6] = tested on: MDA-MB-231 Breast; assay: Cytotoxic effect by MTT assay, 48 h; details: for Percent cytotoxicity wrt control: 48 h
Procedure: as §3, §4, §5, §6, §7, §8

[7] = tested on: MG-63 Bone; assay: Cytotoxic effect by MTT assay, 48 h; details: for Percent cytotoxicity wrt control: 48 h
Procedure: as §3, §4, §5, §6, §7, §8

[8] = tested on: PA-1 Ovary; assay: Cytotoxic effect by MTT assay, 48 h; details: for Percent cytotoxicity wrt control: 48 h
Procedure: as §3, §4, §5, §6, §7, §8

[9] = tested on: PANC-1 Pancreatic; assay: Cytotoxic effect by MTT assay, 48 h; details: for Percent cytotoxicity wrt control: 48 h
Procedure: as §3, §4, §5, §6, §7, §8

[10] = tested on: T24 Bladder; assay: Cytotoxic effect by MTT assay, 48 h; details: for Percent cytotoxicity wrt control: 48 h
Procedure: as §3, §4, §5, §6, §7, §8

[11] = tested on: U251 MG Brain; assay: Cytotoxic effect by MTT assay, 48 h; details: for Percent cytotoxicity wrt control: U251 MG, 48 h
Procedure: as §3, §4, §5, §6, §7, §8

[12] = tested on: A549 Lungs; assay: Cytotoxic effect by MTT assay, 48 h; details: for Percent cytotoxicity wrt control: 48 h
Procedure: as §3, §4, §5, §6, §7, §8

[13] = tested on: PBMC Normal; assay: Cytotoxic effect by MTT assay, 48 h; details: for Percent cytotoxicity wrt control: PBMC, 48 h
Procedure: as §3, §4, §5

[14] = tested on: PA-1 cells; assay: Cytotoxicity (cell titer glo, 72 h) ovarian cancer cell line PA-1; assay type: cell-based; details: Homo sapiens, PA-1 cell line
Procedure: as §1
5,000 cells/well were plated and incubated at 37° C. overnight. Conjugates/vehicle control dilutions were made in respective media and added to cells. Volume added: 50 uL to each well. […] Each concentration was analysed in triplicates. […] Cell titer glow reagent (volume: 50 uL) was added to each well, the plate was shaken for 5 mins and the luminescence was recorded. […] Percent viability was calculated by dividing the luminescence signal obtained for each treated well by the untreated well (media-only control) and multiplying by 100.

COc1cc2c(cc1OCCCCCOc1cc3c(cc1OC)C(=O)N1C=C(C)C[C@H]1[C@H](O)N3C(=O)OCc1ccc(NC(=O)[C@H](C)NC(=O)[C@@H](NC(=O)CCOCCOCCOCCOCCOCCOCCOCCOCCNC(=O)CCN3C(=O)C=CC3=O)C(C)C)cc1)N=C[C@@H]1CC(C)=CN1C2=O [Tesirine]
IC50 [1]: 145 nM
IC50 [2]: 13.4 nM
Percent cytotoxicity wrt control ([3]; 0.0001 μM): 66.4%
Percent cytotoxicity wrt control ([3]; 0.01 μM): 77.8%
Percent cytotoxicity wrt control ([3]; 0.1 μM): 81.3%
Percent cytotoxicity wrt control ([3]; 1 μM): 81.3%
Percent cytotoxicity wrt control ([3]; 10 μM): 81.6%
Percent cytotoxicity wrt control ([4]; HT29, 0.0001 μM): 37.4%
Percent cytotoxicity wrt control ([4]; HT29, 0.001 μM): 44.5%
Percent cytotoxicity wrt control ([4]; HT29, 0.01 μM): 47.7%
Percent cytotoxicity wrt control ([4]; HT29, 0.1 μM): 48.3%
Percent cytotoxicity wrt control ([4]; HT29, 1 μM): 49%
IC50 ([4]; read-out: IC50 Values, HT29 Colon, after 48 h of treatment): 20 nM
Percent cytotoxicity wrt control ([5]; 0.0001 μM): −9.5%
Percent cytotoxicity wrt control ([5]; 0.001 μM): 1%
Percent cytotoxicity wrt control ([5]; 0.01 μM): 76.2%
Percent cytotoxicity wrt control ([5]; 0.1 μM): 93.8%
Percent cytotoxicity wrt control ([5]; 1 μM): 89.1%
Percent cytotoxicity wrt control ([5]; 10 μM): 92.7%
IC50 ([5]; read-out: IC50 Values, KB Cervix, after 48 h of treatment): 6 nM
Percent cytotoxicity wrt control ([6]; MDA-MB-231, 0.001 μM): 41.9%
Percent cytotoxicity wrt control ([6]; MDA-MB-231, 1 μM): 69.2%
IC50 ([6]; read-out: IC50 Values, MDA-MB-231 Breast, after 48 h of treatment): 1.4 nM
Percent cytotoxicity wrt control ([7]; MG-63, 0.0001 μM): 46.6%
Percent cytotoxicity wrt control ([7]; MG-63, 0.001 μM): 69.4%
Percent cytotoxicity wrt control ([7]; MG-63, 0.01 μM): 81.2%
Percent cytotoxicity wrt control ([7]; MG-63, 1 μM): 82.3%
IC50 ([7]; read-out: IC50 Values, MG-63 Bone, after 48 h of treatment): 0.03 nM
Percent cytotoxicity wrt control ([8]; PA-1, 0.001 μM): 66.8%
Percent cytotoxicity wrt control ([8]; PA-1, 0.01 μM): 79.1%
Percent cytotoxicity wrt control ([8]; PA-1, 1 μM): 78.1%
Percent cytotoxicity wrt control ([8]; PA-1, 10 μM): 80.5%
IC50 ([8]; read-out: IC50 Values, PA-1 Ovary, after 48 h of treatment): 0.00599 nM
Percent cytotoxicity wrt control ([9]; PANC-1, 0.0001 μM): 46.6%
Percent cytotoxicity wrt control ([9]; PANC-1, 0.001 μM): 51.1%
Percent cytotoxicity wrt control ([9]; PANC-1, 0.01 μM): 58.3%
Percent cytotoxicity wrt control ([9]; PANC-1, 0.1 μM): 55%
Percent cytotoxicity wrt control ([9]; PANC-1, 10 μM): 71%
IC50 ([9]; read-out: IC50 Values, PANC-1 Pancreatic, after 48 h of treatment): 0.7 nM
Percent cytotoxicity wrt control ([10]; T24, 0.0001 μM): 57.5%
Percent cytotoxicity wrt control ([10]; T24, 0.001 μM): 60.6%
Percent cytotoxicity wrt control ([10]; T24, 0.01 μM): 57.5%
Percent cytotoxicity wrt control ([10]; T24, 0.1 μM): 61.4%
Percent cytotoxicity wrt control ([10]; T24, 1 μM): 62.7%
Percent cytotoxicity wrt control ([10]; T24, 10 μM): 80.4%
IC50 ([10]; read-out: IC50 Values, T24 Bladder, after 48 h of treatment): 2 nM
Percent cytotoxicity wrt control ([11]; 0.001 μM): 26.5%
Percent cytotoxicity wrt control ([11]; 0.01 μM): 23.1%
Percent cytotoxicity wrt control ([11]; 0.1 μM): 19.2%
Percent cytotoxicity wrt control ([11]; 1 μM): 27.2%
Percent cytotoxicity wrt control ([11]; 10 μM): 60.5%
IC50 ([11]; read-out: IC50 Values, U251 MG Brain, after 48 h of treatment): 6820 nM
Percent cytotoxicity wrt control ([12]; A549, 0.0001 μM): 13.7%
Percent cytotoxicity wrt control ([12]; A549, 0.1 μM): 45.2%
Percent cytotoxicity wrt control ([12]; A549, 1 μM): 53.3%
Percent cytotoxicity wrt control ([12]; A549, 10 μM): 66.7%
IC50 ([12]; read-out: IC50 Values, A549 Lungs, after 48 h of treatment): 390 nM
Percent cytotoxicity wrt control ([13]; 0.0001 μM): 16.9%
Percent cytotoxicity wrt control ([13]; 0.01 μM): 40.3%
Percent cytotoxicity wrt control ([13]; 0.1 μM): 38.7%
Percent cytotoxicity wrt control ([13]; 1 μM): 38.2%
IC50 ([13]; read-out: IC50 Values, PBMC Normal, after 48 h of treatment): 5090 nM

CC[C@H](C)[C@@H]([C@@H](CC(=O)N1CCC[C@H]1[C@H](OC)[C@@H](C)C(=O)N[C@H](C)[C@@H](O)c1ccccc1)OC)N(C)C(=O)[C@@H](NC(=O)[C@H](C(C)C)N(C)C(=O)OCc1ccc(NC(=O)[C@H](CCCNC(N)=O)NC(=O)[C@@H](NC(=O)CCCCCN2C(=O)C=CC2=O)C(C)C)cc1)C(C)C [mc-vc-PAB-MMAE] ({Hexanoyl(6-maleimido)}-V[Cit][PABC][NMeV]V[Dil][Dolaproine]-X1)
IC50 [2]: 647 nM
IC50 [14]: 647 nM
